Test results taken from ChEMBL document CHEMBL1201862, “PubChem BioAssay data set” (2004).
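Interpolation was linear, between the two tested concentrations surrounding the appropriate level; five concentrations were tested over 48 hours in 96-well plates. At the GI50, growth is halved.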 Active and inactive are the calls of the source. Cut-off read from the data, not from the text of the source: active = GI50 up to about 1.1 µM and inactive = higher.

Tests used:
Assay in all cases: NCI tumour cell line growth inhibition, 48 h
[1] = system: SK-OV-3
[2] = system: T47D
[3] = system: MDA-MB-435
[4] = system: Malme-3M
[5] = system: UACC-257
[6] = system: HT-29
[7] = system: SF-295
[8] = system: OVCAR-3
[9] = system: SK-MEL-28
[10] = system: NCI-H460
[11] = system: HCT-15
[12] = system: 786-0
[13] = system: A549
[14] = system: EKVX
[15] = system: CCRF-CEM
[16] = system: SNB-19
[17] = system: DU-145
[18] = system: SN12C
[19] = system: MDA-MB-231
[20] = system: SF-539
[21] = system: LOX IMVI
[22] = system: M14
[23] = system: Hs-578T
[24] = system: U-251
[25] = system: RPMI-8226
[26] = system: NCI-H226
[27] = system: SR
[28] = system: HCT-116
[29] = system: SK-MEL-5
[30] = system: COLO 205
[31] = system: NCI-H522
[32] = system: BT-549
[33] = system: PC-3
[34] = system: HL-60
[35] = system: HCC 2998
[36] = system: K562
[37] = system: MDA-N
[38] = system: OVCAR-5
[39] = system: KM12
[40] = system: HOP-62
[41] = system: OVCAR-4
[42] = system: SNB-75
[43] = system: SF-268
[44] = system: CAKI-1
[45] = system: A498
[46] = system: ACHN
[47] = system: NCI-H23
[48] = system: MCF7
[49] = system: MOLT-4
[50] = system: UACC-62
[51] = system: SK-MEL-2
[52] = system: TK-10
[53] = system: SW-620
[54] = system: OVCAR-8
[55] = system: NCI/ADR-RES
[56] = system: HOP-92
[57] = system: RXF 393
[58] = system: IGROV-1
[59] = system: UO-31

Measured: GI50

CC1C(OC2O[C@@H]3O[C@@]4(C)CC[C@H]5[C@H](C)CC[C@@H](C2C)[C@@]35O4)O[C@@H]2O[C@@]3(C)CC[C@H]4[C@H](C)CC[C@@H]1[C@@]24O3 (some centres undefined)
inactive: [1] > 50 µM | [2] > 50 µM | [3] > 50 µM | [4] > 50 µM | [5] > 50 µM | [6] > 50 µM | [7] > 50 µM | [8] > 50 µM | [9] > 50 µM | [10] > 50 µM | [12] > 50 µM | [13] > 50 µM | [14] > 50 µM | [15] > 50 µM | [16] > 50 µM | [17] > 50 µM | [18] > 50 µM | [19] > 50 µM | [20] > 50 µM | [21] > 50 µM | [22] > 50 µM | [23] > 50 µM | [24] > 50 µM | [25] > 50 µM | [26] > 50 µM | [27] > 50 µM | [28] > 50 µM | [29] > 50 µM | [30] > 50 µM | [31] 19.3 µM | [32] > 50 µM | [33] > 50 µM | [34] > 50 µM | [35] > 50 µM | [36] > 50 µM | [37] > 50 µM | [38] > 50 µM | [39] > 50 µM | [40] > 50 µM | [41] > 50 µM | [42] > 50 µM | [43] > 50 µM | [44] > 50 µM | [45] > 50 µM | [46] 1.65 µM | [47] > 50 µM | [48] > 50 µM | [49] > 50 µM | [50] > 50 µM | [51] > 50 µM | [52] > 50 µM | [53] > 50 µM | [54] > 50 µM
> 50 µM: [11]

COC(=O)C(=O)C(C(=O)OC)C(=O)C(=O)Nc1c(Cl)cc([N+](=O)[O-])cc1Cl (centres undefined)
92.9 µM: [11]
inactive: [1] > 100 µM | [2] > 100 µM | [3] > 100 µM | [4] > 100 µM | [5] > 100 µM | [6] > 100 µM | [7] 64 µM | [8] > 100 µM | [9] > 100 µM | [10] > 100 µM | [55] 72.8 µM | [12] 40.7 µM | [13] > 100 µM | [14] 48.6 µM | [15] > 10 µM | [16] > 100 µM | [18] > 100 µM | [19] > 100 µM | [20] > 100 µM | [21] 83 µM | [22] > 100 µM | [23] 66.2 µM | [24] 68.7 µM | [25] > 100 µM | [26] > 100 µM | [27] > 10 µM | [28] > 100 µM | [29] > 100 µM | [31] 27 µM | [32] > 100 µM | [33] > 100 µM | [34] > 100 µM | [56] > 100 µM | [35] > 100 µM | [36] > 100 µM | [37] > 100 µM | [38] > 100 µM | [39] > 100 µM | [40] 37.1 µM | [41] 80.9 µM | [42] 64.1 µM | [43] 40.1 µM | [44] > 100 µM | [57] 81.3 µM | [45] > 100 µM | [46] 80.2 µM | [47] > 100 µM | [48] > 100 µM | [58] 44.9 µM | [50] > 100 µM | [51] > 100 µM | [52] 62.4 µM | [53] > 100 µM | [59] > 100 µM | [54] 46 µM

C=C(C)CC1(O[Si](C)(C)C)C(=O)C(OCC)=C1OCC (centres undefined)
> 100 µM: [11]
inactive: [1] > 100 µM | [2] > 100 µM | [3] > 100 µM | [4] > 100 µM | [5] > 100 µM | [6] > 100 µM | [7] > 100 µM | [8] > 100 µM | [9] > 100 µM | [10] > 100 µM | [55] > 100 µM | [12] > 100 µM | [13] > 100 µM | [14] > 100 µM | [15] > 100 µM | [16] > 100 µM | [17] > 100 µM | [18] > 100 µM | [19] > 100 µM | [20] > 100 µM | [21] > 100 µM | [22] > 100 µM | [23] > 100 µM | [24] > 100 µM | [26] > 100 µM | [28] > 100 µM | [29] > 100 µM | [30] > 100 µM | [31] > 100 µM | [32] > 100 µM | [33] > 100 µM | [34] > 100 µM | [56] > 100 µM | [38] > 100 µM | [39] > 100 µM | [40] > 100 µM | [41] > 100 µM | [42] > 100 µM | [43] > 100 µM | [44] > 100 µM | [45] > 100 µM | [46] > 100 µM | [47] > 100 µM | [48] > 100 µM | [49] > 100 µM | [58] > 100 µM | [50] > 100 µM | [51] > 100 µM | [52] > 100 µM | [53] > 100 µM | [59] > 100 µM | [54] > 100 µM

O=C1[C@@H]2[C@@H](c3ccccc3)[C@]2(Cl)C(=O)[C@H]2[C@H](c3ccccc3)[C@@]12Cl
active: [27] 0.189 µM
> 100 µM: [11]
inactive: [1] > 100 µM | [2] > 100 µM | [3] > 100 µM | [4] > 100 µM | [5] > 100 µM | [6] > 100 µM | [7] > 100 µM | [8] > 100 µM | [9] > 100 µM | [10] > 100 µM | [55] > 100 µM | [12] > 100 µM | [13] > 100 µM | [14] > 100 µM | [15] > 100 µM | [16] > 100 µM | [17] > 100 µM | [18] > 100 µM | [19] > 100 µM | [20] > 100 µM | [21] > 100 µM | [22] > 100 µM | [23] > 100 µM | [24] > 100 µM | [26] > 100 µM | [28] > 100 µM | [29] > 100 µM | [30] > 100 µM | [31] > 100 µM | [32] 45.8 µM | [33] > 100 µM | [34] > 100 µM | [56] > 100 µM | [35] > 100 µM | [36] > 100 µM | [38] > 100 µM | [39] > 100 µM | [40] > 100 µM | [41] > 100 µM | [42] > 100 µM | [43] > 100 µM | [44] > 100 µM | [57] > 100 µM | [45] > 100 µM | [46] > 100 µM | [47] > 100 µM | [48] > 100 µM | [49] > 100 µM | [58] > 100 µM | [50] > 100 µM | [51] > 100 µM | [52] > 100 µM | [53] > 100 µM | [59] 57 µM | [54] > 100 µM

N#CC(NCCc1ccccc1)c1ccc(C(C#N)NCCc2ccccc2)cc1 (centres undefined)
> 100 µM: [11]
inactive: [1] > 100 µM | [2] > 100 µM | [3] 33.8 µM | [4] > 100 µM | [5] > 100 µM | [6] 49.2 µM | [7] > 100 µM | [8] > 100 µM | [9] 48.5 µM | [10] > 100 µM | [55] 24.3 µM | [12] 72.4 µM | [13] > 100 µM | [14] > 100 µM | [15] 17.9 µM | [16] 61.2 µM | [17] > 100 µM | [18] 97.5 µM | [19] > 100 µM | [20] > 100 µM | [21] 45.1 µM | [22] 70.6 µM | [23] 71.8 µM | [24] 8.17 µM | [26] > 100 µM | [28] 28.8 µM | [29] 32.1 µM | [30] 48 µM | [31] > 100 µM | [32] 20.5 µM | [33] > 100 µM | [34] 14.6 µM | [56] > 100 µM | [35] 83.9 µM | [36] 24.2 µM | [38] > 100 µM | [39] > 100 µM | [41] > 100 µM | [43] 69.3 µM | [44] > 100 µM | [57] > 100 µM | [45] > 100 µM | [46] > 100 µM | [47] 30.7 µM | [48] 55.5 µM | [49] 32.6 µM | [58] > 100 µM | [50] > 100 µM | [51] > 100 µM | [52] > 100 µM | [53] 32.8 µM | [59] 93.1 µM | [54] 73.6 µM
